Reference: patent US20220226499A1, “Metabolite Delivery for Modulating Metabolic Pathways of Cells” (Arizona Board of Regents on Behalf of Arizona State …, priority 2019, published 2022)

How the values were obtained:
DCs [1] = test: DC activation and cytokine expression by flow cytometry; format: cell-based, C57BL/6j mice; conditions: for CD86 expression in CD11c+ cells: equivalent amount as PaKG MPs, vs no treatment control and PaKG MP condition
Description: Briefly, femur and tibia from mice were isolated and kept in wash media composed of DMEM/F-12 (1:1) with L-glutamine, 10% fetal bovine and 1% penicillin-streptomycin. The ends of the bones were cut, and bone marrow was flushed out with 10 mL wash media and mixed to make a homogeneous suspension. Red blood cells were lysed by incubating and resuspending the pellet in 3 mL 1× red blood cell (RBC) lysis buffer for 3 minutes at 4° C. The cell suspension was then washed twice with wash media and re-suspended in DMEM/F-12 with L-glutamine, 10% fetal bovine serum, 1% sodium pyruvate, 1% non-essential amino acids (VWR, Radnor, Pa.), 1% penicillin-streptomycin and 20 ng/ml GM-CSF (DC media). All % values shown here are vol/vol. This cell suspension was then seeded in a tissue culture-treated T-75 flask (day 0). After 48 hours (day 2), floating cells were collected, centrifuged, re-suspended in fresh media and seeded on low attachment plates for 6 additional days. Half of the media was changed every alternate day. At the end of 6 days (day 8), cells were lifted from the low attachment wells by gentle pipetting, re-suspended and seeded on tissue culture-treated polystyrene plates for 2 more days before treating them. […] Purity, yield, and immaturity of DCs (CD11c, MHC-II and CD86) were verified via immunofluorescence staining and flow cytometry. Dendritic cells were isolated from at least 3 separate mice for each experiment.

DCs [2] = test: Seahorse Assay (ECAR and OCR)
Description: Lipopolysaccharide (LPS) was used as a positive control, and no treatment was used as a negative control.
Sequential injections were performed with D-glucose (10 mM), oligomycin (1 mM), and 2-deoxyglucose (100 mmol/L). The extracellular acidification rates (ECAR) after the injection of D-glucose was a measure of glycolysis, and the ECAR after the injection of oligomycin represented maximal glycolytic capacity. Non-glycolytic activity was quantified by the measure of ECAR after the injection of 2-deoxyglucose. Samples were analyzed with 10 technical replicates.
For oxidative phosphorylation, 24 hours after cell seeding, media was changed to unbuffered DMEM containing 2 mM glutamine, 1 mM pyruvate, and 10 mM glucose. […] The oxygen consumption rate (OCR) after the injection of oligomycin was a measure of ATP-linked respiration and the OCR after the injection of FCCP represented maximal respiratory capacity. Basal respiration was quantified by the measure of OCR prior to the injection of oligomycin. Samples were analyzed with 10 technical replicates.

## O=C(O)CCC(=O)C(=O)O [soluble aKG, alpha-ketoglutarate]
DCs [1]
  CD86 expression in CD11c+ cells: did not significantly change
DCs [2]; DCs
  glycolysis levels compared to PaKG MPs: higher
DCs [2]; vs no treatment control (PaKG MPs also vs LPS)
  glycolysis: decreased

## OCCCCCCCCCCO [1,10-decanediol]
DCs [1]
  CD86 expression in CD11c+ cells: did not significantly change

## Lipopolysaccharide [LPS]
DCs [1]; vs untreated immature DCs
  frequency of MHC-II+CD86+ in DCs: significantly upregulated
